Consider five compounds from US20240287138A1, “CYCLIC PEPTIDES FOR INHIBITING TNF RECEPTOR 1 ACTIVITY” (Merck Sharp & Dohme LLC, priority 2023, published 2024).

In test [1] the target is T1, TNFα-induced NF-κB signal transduction pathway (TNFR1 signaling) in THP-1 cells (Homo sapiens, UniProt P19438).
T1 sequence (P19438 30-455): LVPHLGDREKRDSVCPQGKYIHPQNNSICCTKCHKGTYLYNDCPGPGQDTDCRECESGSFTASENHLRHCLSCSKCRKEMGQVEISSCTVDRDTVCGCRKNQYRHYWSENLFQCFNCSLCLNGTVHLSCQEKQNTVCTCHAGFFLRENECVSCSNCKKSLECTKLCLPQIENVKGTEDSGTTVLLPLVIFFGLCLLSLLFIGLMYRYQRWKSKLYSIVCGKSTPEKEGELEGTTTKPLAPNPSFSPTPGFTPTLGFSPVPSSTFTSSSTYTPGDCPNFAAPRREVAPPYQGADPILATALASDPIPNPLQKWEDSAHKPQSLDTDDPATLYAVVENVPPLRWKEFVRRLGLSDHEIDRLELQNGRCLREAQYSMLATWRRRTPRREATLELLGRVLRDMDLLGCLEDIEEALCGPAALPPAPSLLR
The experiment in a line: THP-1 Lucia NF-κB reporter cell assay, inhibition of TNFα-induced NF-κB signaling. Format: cell-based. Particulars: THP-1 NF-κB Lucia reporter cells, 10 ng/mL TNFα, 16-18 h, secreted luciferase; read-out: THP-1 IC50. The gist of the method: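 IC50 from a 4-parameter logistic fit of secreted luciferase luminescence (QUANTI-Luc), normalised to min/max controls. Reporter THP-1 cells were exposed to peptides for 1 h at 37 °C before 10 ng/mL TNFα (final) was added overnight (16–18 h).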

Test [2] deals with T2, human soluble TNFR1 (sTNFR1) (Homo sapiens, UniProt P19438).
T2 construct: made in house; host or cells: Sf21 (baculovirus)
T2 sequence (P19438 with tags, fused parts or gaps): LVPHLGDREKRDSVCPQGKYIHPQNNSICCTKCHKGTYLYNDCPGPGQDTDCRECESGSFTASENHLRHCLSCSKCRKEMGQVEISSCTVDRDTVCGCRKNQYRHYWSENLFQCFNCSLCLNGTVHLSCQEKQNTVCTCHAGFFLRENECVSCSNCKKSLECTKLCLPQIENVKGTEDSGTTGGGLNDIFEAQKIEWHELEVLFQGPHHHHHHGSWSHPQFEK
Nature of the test: Human sTNFR1-peptide displacement assay (LanthaScreen Eu TR-FRET binding assay). The method, boiled down:
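Readout is the 665/615 nm TR-FRET ratio (Eu anti-His donor, streptavidin-Alexa647 acceptor), normalized to DMSO and saturating displacer, fit by Morrison-based five-parameter logistic for Kd^app. His-tagged sTNFR1 (1-211) prebound to 100 nM biotinylated peptide SEQ ID NO.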

Read-outs that look alike come from different tables or passages of the source. Numbered stars: 1 amine (or outer) side, 2 acyl side, 3 side chain; on linkers, the order of the positions; unused ones are H or OH. Bridge positions count the residues as written; N and C are the ends. Square brackets hold non-standard residues; d marks the D form. Peptide text beside a SMILES is read from it. * marks the point of attachment. Trp(βS-Me,7-OMe) = COc1cccc2c([C@H](C)[C@H](N)C(=O)O)c[nH]c12; X56 = Cc1cccc2c([C@H](C)[C@H](N[*:1])C(=O)[*:2])c[nH]c12; Trp(1-CH2COOH) = N[C@@H](Cc1cn(CC(=O)O)c2ccccc12)C(=O)O; X44 = NC(=O)c1ccc([C@@H](O)[C@H](N[*:1])C(=O)[*:2])cc1; Phe(4-SO2NH2) = N[C@@H](Cc1ccc(S(N)(=O)=O)cc1)C(=O)O; Trp(7-CN) = N#Cc1cccc2c(C[C@H](N)C(=O)O)c[nH]c12; Trp(7-Cl) = N[C@@H](Cc1c[nH]c2c(Cl)cccc12)C(=O)O; X62 = O=C(O)c1ccc(C[C@H](N[*:1])C(=O)[*:2])cc1Cl; Phe(4-CONH2) = NC(=O)c1ccc(C[C@H](N)C(=O)O)cc1; Phe(4-COOH) = N[C@@H](Cc1ccc(C(=O)O)cc1)C(=O)O; X59 = O=C([C@H](Cc1[nH]nc2ccccc12)N[*:1])[*:2]; Pip(5R-OH) = O=C(O)[C@@H]1CC[C@@H](O)CN1; X1 = O=C([C@@H]1CC[C@H](N[*:1])C1)[*:2]; X53 = O=C([C@H](Cc1ccncc1F)N[*:1])[*:2]; Pip(4-aza) = O=C(O)[C@@H]1CNCCN1; 4Pal = N[C@@H](Cc1ccncc1)C(=O)O; NMeE = CN[C@@H](CCC(=O)O)C(=O)O; dHyp = O=C(O)[C@H]1C[C@H](O)CN1; Pip = O=C(O)[C@@H]1CCCCN1; αMeS = C[C@](N)(CO)C(=O)O; Carboxymethyl = O=C(O)C*; Nle = CCCC[C@H](N)C(=O)O; Sar = CNCC(=O)O

With `CCCC[C@@H]1NC(=O)[C@@H]2CC[C@@H](C2)NC(=O)[C@H]([C@@H](C)c2c[nH]c3c(OC)cccc23)NC(=O)CN(C)C(=O)[C@H](Cc2ccc(O)cc2)NC(=O)[C@H](Cc2ccc(C(=O)O)cc2)NC(=O)[C@](C)(CO)NC(=O)[C@H](Cc2c[nH]c3c(Cl)cccc23)NC(=O)[C@H](Cc2ccncc2)NC(=O)[C@H](CC(N)=O)NC(=O)[C@H](CCC(=O)O)N(C)C(=O)[C@H](Cc2c[nH]c3ccccc23)NC(=O)[C@@H]2CNCCN2C(=O)[C@H](Cc2ccncc2F)NC1=O` [SEQ ID NO. 201] (cyclo([4Pal][Trp(7-Cl)][αMeS][Phe(4-COOH)]Y[Sar][Trp(βS-Me,7-OMe)][X1][Nle][X53][Pip(4-aza)]W[NMeE]N)), in test [1], the IC50 was found to be 0.9 nM. For the same compound, the Kd in test [2] came out at 0.21 nM.
The like results for `CCCC[C@@H]1NC(=O)[C@@H]2CC[C@@H](C2)NC(=O)[C@H]([C@@H](C)c2c[nH]c3c(OC)cccc23)NC(=O)CN(C)C(=O)[C@H](Cc2ccc(C(=O)O)cc2)NC(=O)[C@H](Cc2ccc(S(N)(=O)=O)cc2)NC(=O)[C@](C)(CO)NC(=O)[C@H](Cc2c[nH]c3c(C#N)cccc23)NC(=O)[C@H](Cc2ccc(C(=O)O)cc2)NC(=O)[C@H](CC(N)=O)NC(=O)[C@H]2C[C@H](OCC(=O)O)CN2C(=O)[C@H](Cc2[nH]nc3ccccc23)NC(=O)[C@@H]2CC[C@@H](O)CN2C(=O)[C@H](Cc2ccncc2)NC1=O` [SEQ ID NO. 204] (cyclo([4Pal][Pip(5R-OH)][X59][dHyp](Carboxymethyl)N[Phe(4-COOH)][Trp(7-CN)][αMeS][Phe(4-SO2NH2)][Phe(4-COOH)][Sar][Trp(βS-Me,7-OMe)][X1][Nle])) were, in that order, 0.8 nM and 0.11 nM.
As to `CCCC[C@@H]1NC(=O)[C@@H]2CC[C@@H](C2)NC(=O)[C@H]([C@@H](C)c2c[nH]c3c(OC)cccc23)NC(=O)CN(C)C(=O)[C@H](Cc2ccc(C(=O)O)c(Cl)c2)NC(=O)[C@H](Cc2ccc(C(N)=O)cc2)NC(=O)[C@](C)(CO)NC(=O)[C@H](Cc2c[nH]c3c(C#N)cccc23)NC(=O)[C@H](Cc2ccc(C(=O)O)c(Cl)c2)NC(=O)[C@H](CC(N)=O)NC(=O)[C@H]2C[C@H](O)CN2C(=O)[C@H](Cc2c[nH]c3ccccc23)NC(=O)[C@@H]2CC[C@@H](O)CN2C(=O)[C@H](Cc2ccncc2)NC1=O` [SEQ ID NO. 207] (cyclo([4Pal][Pip(5R-OH)]W[dHyp]N[X62][Trp(7-CN)][αMeS][Phe(4-CONH2)][X62][Sar][Trp(βS-Me,7-OMe)][X1][Nle])), the IC50 in test [1] is 1 nM. In test [2], this compound came in with a Kd of 0.12 nM.
Take `CCCC[C@@H]1NC(=O)CSC[C@@H](C(N)=O)NC(=O)[C@H]([C@@H](C)c2c[nH]c3c(C)cccc23)NC(=O)CN(C)C(=O)[C@H](Cc2ccc(O)cc2)NC(=O)[C@H](Cc2ccc(C(=O)O)cc2)NC(=O)[C@](C)(CO)NC(=O)[C@H](Cc2c[nH]c3c(Cl)cccc23)NC(=O)[C@H](Cc2ccncc2)NC(=O)[C@H](CC(N)=O)NC(=O)[C@H](CCC(=O)O)N(C)C(=O)[C@H](Cc2c[nH]c3ccccc23)NC(=O)[C@@H]2CCCCN2C(=O)[C@H](Cc2ccncc2)NC1=O` [SEQ ID NO. 208] ({CH2CO}-[Nle][4Pal][Pip]W[NMeE]N[4Pal][Trp(7-Cl)][αMeS][Phe(4-COOH)]Y[Sar][X56]C-NH2; thioether N-14): the IC50 in test [1] stood at 4 nM; in test [2], 1.31 nM.
For the compound `CCCC[C@@H]1NC(=O)[C@@H]2CC[C@@H](C2)NC(=O)[C@H]([C@@H](C)c2c[nH]c3c(OC)cccc23)NC(=O)CN(C)C(=O)[C@H]([C@H](O)c2ccc(C(N)=O)cc2)NC(=O)[C@H](Cc2ccc(S(N)(=O)=O)cc2)NC(=O)[C@](C)(CO)NC(=O)[C@H](Cc2c[nH]c3c(C#N)cccc23)NC(=O)[C@H](Cc2ccc(C(=O)O)cc2)NC(=O)[C@H](CC(N)=O)NC(=O)[C@H]2C[C@H](O)CN2C(=O)[C@H](Cc2cn(CC(=O)O)c3ccccc23)NC(=O)[C@@H]2CC[C@@H](O)CN2C(=O)[C@H](Cc2ccncc2)NC1=O` [SEQ ID NO. 210] (cyclo([4Pal][Pip(5R-OH)][Trp(1-CH2COOH)][dHyp]N[Phe(4-COOH)][Trp(7-CN)][αMeS][Phe(4-SO2NH2)][X44][Sar][Trp(βS-Me,7-OMe)][X1][Nle])), in test [1], the IC50 worked out at 0.5 nM. The Kd in test [2] (displacement of biotinylated peptide SEQ ID NO. 1 from sTNFR1, 20 point titration, 5-parameter fit based on Morrison equation (tight binding), read-out: TR-FRET Kd^app) was found to be 0.12 nM.
